Strand notation (5' to 3'): a small letter for the sugar, then the base; units joined by * are phosphorothioate-linked, units joined directly phosphodiester-linked; [ ] holds rarer units or linkages, { } end groups; capitals alone tell only the bases. e = 2'-O-(2-methoxyethyl) (MOE); k = constrained ethyl (cEt); [5mC] = 5-methylcytosine; d = 2'-deoxy (DNA)
tested on: human PKK mRNA; assay: Antisense inhibition of human PKK mRNA in HepaRG cells, 1,000 nM, MOE/deoxy/cEt oligonucleotides (Example 3); assay type: cell-based; settings: HepaRG cells, 1,000 nM antisense oligonucleotide, Table 29
How it was run: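 HepaRG cells at 20,000 per well electroporated with 1,000 nM 16-mer MOE/cEt/deoxy gapmers (phosphorothioate, 5-methylcytosine). After about 24 h, PKK mRNA measured by qRT-PCR with primer probe set RTS3454, normalized to RIBOGREEN total RNA. Reported as percent inhibition versus untreated cells.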

Point of comparison: “548584 (eT*eG*kA*dT*dG*dA*dA*dG*dT*dT*d[5mC]*d[5mC]*dA*k[5mC]*k[5mC]*eT; antisense) [compound 548584]”, “% inhibition” value 47%. Against it:
- 548566 (antisense e[5mC]*eA*k[5mC]*dT*d[5mC]*dA*dG*dA*d[5mC]*dT*dG*dT*d[5mC]*kT*kG*eA) [compound 548566] — lower, 0%
- 548559 (antisense eG*eA*kG*dA*d[5mC]*dT*dG*dA*dA*dG*d[5mC]*d[5mC]*d[5mC]*kT*k[5mC]*eA) [compound 548559] — lower, 44%

same assay, conditions: HepaRG cells, electroporation with 1,000 nM antisense oligonucleotide, approx. 24 hours, PKK mRNA by RT-PCR (RTS3454), relative to untreated control cells; Table 25 experiment

Point of comparison: “548154 (eG*eT*kG*d[5mC]*dT*dG*dA*dA*dA*dG*d[5mC]*dG*dG*kG*k[5mC]*eT; antisense) [compound 548154]”, “% inhibition” value 7%. Against it:
- 548213 (eG*eA*k[5mC]*dA*dG*d[5mC]*d[5mC]*d[5mC]*dA*d[5mC]*d[5mC]*dA*dA*k[5mC]*kA*eA; antisense) [compound 548213] — higher, 70%
- 548190 (eT*eA*kT*dT*d[5mC]*d[5mC]*dA*dT*dG*dA*dA*d[5mC]*dA*kT*k[5mC]*e[5mC]; antisense) [compound 548190] — higher, 43%
- 548227 (eG*eT*kG*dG*d[5mC]*d[5mC]*d[5mC]*dT*d[5mC]*dT*dT*dA*dA*kG*kT*e[5mC]; antisense) [compound 548227] — lower, 0%
- 548206 (eG*eG*kT*d[5mC]*dA*dA*dT*d[5mC]*dT*dG*dA*d[5mC]*dT*kA*kG*eT; antisense) [compound 548206] — higher, 45%
- 548175 (eA*eT*k[5mC]*dT*d[5mC]*dA*dG*dT*dT*dG*d[5mC]*dG*dA*k[5mC]*k[5mC]*eT; antisense) [compound 548175] — lower, 0%

same assay, conditions: HepaRG cells, electroporation with 1,000 nM antisense oligonucleotide, approx. 24 hours, PKK mRNA by RT-PCR (RTS3454), relative to untreated control cells; Table 26 experiment

Point of comparison: “548237 (eG*eT*kA*dT*dA*d[5mC]*dA*dT*d[5mC]*dT*dA*dG*dA*kT*kG*eA; antisense) [compound 548237]”, “% inhibition” value 22%. Against it:
- 548292 (eA*eG*kG*dA*d[5mC]*dA*d[5mC]*dT*dG*dT*dT*dT*d[5mC]*k[5mC]*kA*eG; antisense) [compound 548292] — higher, 38%
- 548299 (e[5mC]*eA*kT*dT*dG*dT*dG*d[5mC]*dT*d[5mC]*dA*dA*d[5mC]*kT*kG*eA; antisense) [compound 548299] — higher, 35%

same assay, conditions: HepaRG cells, electroporation with 1,000 nM antisense oligonucleotide, approximately 24 hours, primer probe set RTS3454, relative to untreated control cells; experiment of Table 23

Point of comparison: “547920 (eG*eA*kG*dA*dA*d[5mC]*d[5mC]*d[5mC]*dT*dG*dG*d[5mC]*dA*kA*k[5mC]*eA; antisense) [compound 547920]”, “% inhibition” value 52%. Against it:
- 547985 (antisense eG*e[5mC]*kG*dA*dA*dT*d[5mC]*dA*dT*d[5mC]*dT*dT*dT*kG*kT*eG) [compound 547985] — higher, 63%
- 547995 (antisense eG*eT*kG*dT*d[5mC]*d[5mC]*d[5mC]*dA*dT*dA*d[5mC]*dG*d[5mC]*kA*kA*eT) [compound 547995] — higher, 64%

same assay, conditions: HepaRG cells, electroporation with 1,000 nM antisense oligonucleotide, approximately 24 hours, primer probe set RTS3454, relative to untreated control cells; experiment of Table 24

Point of comparison: “548056 (eG*eT*kG*dT*dA*dA*dT*dT*d[5mC]*dA*dA*dA*dG*kG*kA*eG; antisense) [compound 548056]”, “% inhibition” value 40%. Against it:
- 548051 (eA*eA*kG*dG*d[5mC]*dG*dA*dT*dA*dT*d[5mC]*dA*dT*kG*kA*eT; antisense) [compound 548051] — higher, 61%
- 548058 (eG*e[5mC]*kA*dT*dA*dT*dT*dG*dG*dT*dT*dT*dT*kT*kG*eG; antisense) [compound 548058] — higher, 71%

same assay, conditions: PKK mRNA, HepaRG cells, 1,000 nM antisense oligonucleotide; Table 31

Point of comparison: “548682 (antisense eG*eT*kA*dT*d[5mC]*d[5mC]*d[5mC]*d[5mC]*dT*dT*dT*dT*d[5mC]*kT*kA*eT) [compound 548682]”, “% inhibition” value 0%. Against it:
- 548627 (antisense e[5mC]*e[5mC]*k[5mC]*dA*d[5mC]*dA*dT*dG*dT*dA*d[5mC]*d[5mC]*dA*k[5mC]*k[5mC]*eG) [compound 548627] — higher, 22%
- 548680 (antisense eG*e[5mC]*k[5mC]*d[5mC]*d[5mC]*dT*d[5mC]*dT*dT*dA*dA*dA*dT*kA*kG*e[5mC]) [compound 548680] — higher, 9%
- 548666 (antisense eT*e[5mC]*kT*d[5mC]*d[5mC]*dA*dT*dA*dG*dT*dG*dA*dG*kA*k[5mC]*eG) [compound 548666] — higher, 1%

same assay, conditions: Table 19; HepaRG cells, electroporation with 1,000 nM antisense oligonucleotide, approximately 24 hours; PKK mRNA by RT-PCR (RTS3454), relative to untreated control cells

Point of comparison: “548105 (antisense e[5mC]*eA*kT*dG*dT*dA*d[5mC]*dT*d[5mC]*dA*dG*d[5mC]*dG*kA*k[5mC]*eT) [compound 548105]”, “% inhibition” value 49%. Against it:
- 548084 (eA*eA*kG*dG*dG*dA*d[5mC]*d[5mC]*dA*d[5mC]*d[5mC]*dT*dG*kA*kA*eT; antisense) [compound 548084] — lower, 0%
- 548096 (antisense eG*eT*kG*dT*dT*dT*dG*d[5mC]*dA*dA*dA*d[5mC]*dT*kA*kA*eG) [compound 548096] — lower, 23%
- 548127 (eT*eT*kG*d[5mC]*d[5mC]*dT*dA*dG*dA*d[5mC]*dT*d[5mC]*dT*kG*kG*eA; antisense) [compound 548127] — higher, 60%

same assay, conditions: Table 20; HepaRG cells, electroporation with 1,000 nM antisense oligonucleotide, approximately 24 hours; PKK mRNA by RT-PCR (RTS3454), relative to untreated control cells

Point of comparison: “547884 (e[5mC]*eG*kT*dG*dG*d[5mC]*dA*dT*dA*dT*dG*dA*dA*kA*kA*eA; antisense) [compound 547884]”, “% inhibition” value 87%. Against it:
- 547879 (antisense eT*e[5mC]*kA*dA*d[5mC]*dA*d[5mC]*dT*dG*d[5mC]*dT*dA*dA*k[5mC]*k[5mC]*eT) [compound 547879] — lower, 69%
- 547906 (eT*eT*kA*d[5mC]*dT*d[5mC]*dA*dG*d[5mC]*dA*d[5mC]*d[5mC]*dT*kT*kT*eA; antisense) [compound 547906] — lower, 59%

same assay, conditions: Table 21 experiment; HepaRG cells, electroporation with 1,000 nM antisense oligonucleotide, approx. 24 hours; PKK mRNA by RT-PCR (RTS3454), relative to untreated control cells

Point of comparison: “547818 (eG*eA*kT*dT*dG*dA*dA*d[5mC]*dT*dT*dG*d[5mC]*dT*kG*kG*eA; antisense) [compound 547818]”, “% inhibition” value 4%. Against it:
- 547777 (antisense eT*eT*kG*d[5mC]*dT*dT*d[5mC]*dT*dT*dG*dG*dA*dG*kG*kT*eG) [compound 547777] — higher, 69%
- 547810 (e[5mC]*e[5mC]*kT*d[5mC]*dA*dT*d[5mC]*dT*dG*dG*d[5mC]*dA*dG*kT*kA*eT; antisense) [compound 547810] — higher, 60%
- 547797 (antisense eA*eG*k[5mC]*dT*dA*d[5mC]*dA*dT*d[5mC]*d[5mC]*d[5mC]*d[5mC]*dA*k[5mC]*k[5mC]*eT) [compound 547797] — higher, 33%

same assay, conditions: Table 22 experiment; HepaRG cells, electroporation with 1,000 nM antisense oligonucleotide, approx. 24 hours; PKK mRNA by RT-PCR (RTS3454), relative to untreated control cells

Point of comparison: “547884 (e[5mC]*eG*kT*dG*dG*d[5mC]*dA*dT*dA*dT*dG*dA*dA*kA*kA*eA; antisense) [compound 547884]”, “% inhibition” value 49%. Against it:
- 547879 (antisense eT*e[5mC]*kA*dA*d[5mC]*dA*d[5mC]*dT*dG*d[5mC]*dT*dA*dA*k[5mC]*k[5mC]*eT) [compound 547879] — higher, 65%
- 547906 (eT*eT*kA*d[5mC]*dT*d[5mC]*dA*dG*d[5mC]*dA*d[5mC]*d[5mC]*dT*kT*kT*eA; antisense) [compound 547906] — higher, 70%

same assay, conditions: Table 27; HepaRG cells, 1,000 nM antisense oligonucleotide; human PKK mRNA

Point of comparison: “548334 (antisense eG*e[5mC]*kT*d[5mC]*dA*d[5mC]*dT*dA*dT*dA*dG*dG*d[5mC]*k[5mC]*k[5mC]*e[5mC]) [compound 548334]”, “% inhibition” value 69%. Against it:
- 548365 (antisense eT*eG*kT*dA*d[5mC]*dT*d[5mC]*d[5mC]*dA*d[5mC]*d[5mC]*dT*d[5mC]*kA*k[5mC]*eG) [compound 548365] — lower, 55%
- 548366 (antisense eA*eG*k[5mC]*dA*dA*dG*d[5mC]*dT*dA*dA*dG*dT*dG*kA*kG*eT) [compound 548366] — lower, 5%
- 548359 (antisense e[5mC]*e[5mC]*kT*dA*dG*dT*d[5mC]*d[5mC]*dT*d[5mC]*dA*dA*dG*kT*kT*eT) [compound 548359] — lower, 0%
- 548342 (antisense eG*eG*kA*dA*dG*dA*d[5mC]*dT*dT*d[5mC]*d[5mC]*d[5mC]*dT*k[5mC]*kT*eG) [compound 548342] — lower, 0%
- 548307 (eT*eT*k[5mC]*dT*dG*d[5mC]*dA*dA*d[5mC]*dT*dG*dA*dG*k[5mC]*k[5mC]*eT; antisense) [compound 548307] — lower, 6%
- 548346 (antisense eT*e[5mC]*k[5mC]*d[5mC]*d[5mC]*dA*dA*dT*dA*d[5mC]*dT*dT*dG*k[5mC]*kT*eG) [compound 548346] — lower, 35%
- 548336 (antisense eG*e[5mC]*kA*d[5mC]*dA*dT*dT*dA*dG*dG*dA*dG*dG*kT*kA*eG) [compound 548336] — lower, 1%
- 548339 (antisense eA*e[5mC]*kA*dT*dG*dT*dG*dG*dG*dA*dT*d[5mC]*dA*kG*kA*eG) [compound 548339] — lower, 37%

same assay, conditions: Table 28; HepaRG cells, 1,000 nM antisense oligonucleotide; human PKK mRNA

Point of comparison: “548504 (antisense eG*e[5mC]*kA*dG*d[5mC]*dG*dA*dG*d[5mC]*dA*dT*dT*d[5mC]*k[5mC]*kA*eA) [compound 548504]”, “% inhibition” value 28%. Against it:
- 548518 (antisense e[5mC]*eA*k[5mC]*dA*d[5mC]*dT*dT*dA*d[5mC]*d[5mC]*d[5mC]*d[5mC]*dG*k[5mC]*kT*e[5mC]) [compound 548518] — lower, 12%
- 548488 (antisense e[5mC]*e[5mC]*kT*d[5mC]*d[5mC]*dT*dT*dT*dT*dG*dG*d[5mC]*dT*kT*kG*eA) [compound 548488] — higher, 63%

same assay, conditions: Table 30; human PKK mRNA, HepaRG cells, 1,000 nM antisense oligonucleotide

Point of comparison: “548420 (antisense eT*e[5mC]*k[5mC]*dT*dA*dT*dA*dT*d[5mC]*dA*d[5mC]*dT*dG*kT*k[5mC]*e[5mC]) [compound 548420]”, “% inhibition” value 58%. Against it:
- 548401 (eG*e[5mC]*k[5mC]*dA*dG*d[5mC]*dT*dA*dT*dG*dG*dG*dA*kA*k[5mC]*eA; antisense) [compound 548401] — higher, 71%
